Test results from article PMC10683025, “Discovery of a Hydroxylamine-Based Brain-Penetrant EGFR Inhibitor for Metastatic Non-Small-Cell Lung Cancer” (Journal of Medicinal Chemistry, 2023).
Read-outs that look alike come from different tables or passages of the source.

Experiments:
[1] = target: T1, ABL1(Q252H)-nonphosphorylated (Homo sapiens, UniProt P00519, Q252H); experiment: KINOMEScan; format: binding; details: read-out: Percent Control
T1 construct: purchased Eurofins DiscoverX
Description: (§4) Percent control was mapped onto the kinome tree using TREEspot.

YSK1 = target: T2, YSK1 (Homo sapiens, UniProt O00506); experiment: KINOMEScan; format: binding; details: YSK1, 1 µM; read-out: Percent Control
T2 construct: purchased Eurofins DiscoverX (KINOMEScan service)
T2 sequence (O00506 whole entry): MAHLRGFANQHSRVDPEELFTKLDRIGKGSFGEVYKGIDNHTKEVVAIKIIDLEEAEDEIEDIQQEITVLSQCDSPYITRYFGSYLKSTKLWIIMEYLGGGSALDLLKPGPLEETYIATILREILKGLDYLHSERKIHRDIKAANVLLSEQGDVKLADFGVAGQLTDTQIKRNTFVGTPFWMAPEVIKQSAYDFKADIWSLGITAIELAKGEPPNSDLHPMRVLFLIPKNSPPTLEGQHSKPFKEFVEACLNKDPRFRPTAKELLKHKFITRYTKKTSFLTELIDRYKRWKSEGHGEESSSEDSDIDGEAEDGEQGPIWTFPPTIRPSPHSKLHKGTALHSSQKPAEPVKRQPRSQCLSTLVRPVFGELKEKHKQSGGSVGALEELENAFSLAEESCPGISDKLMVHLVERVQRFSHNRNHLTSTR

[2] = target: T3, ABL1(T315I)-phosphorylated (Homo sapiens, UniProt P00519, T315I); experiment: KINOMEScan; format: binding; details: read-out: Percent Control
T3 construct: purchased Eurofins DiscoverX
Description: as §4

[3] = Oral CNS pharmacokinetic assessment; format: in vivo, Sprague-Dawley rats; details: male, Sprague-Dawley, brain, Rat 20 mg/kg (PO)
Description: (§1) Animal experiments were performed at Pharmaron, Inc. and animal use was approved by Pharmaron’s Institutional Animal Care and Use Committee (IACUC) in Pharmaron (Pharmaron IACUC, Protocol #PK-M-07182022, #PK-R-06012022, and #ON-CELL-XEN-06012022) following the guidance of AAALAC. Six- to eight-week-old male Sprague-Dawley rats (approximately 200–300 g) obtained from Si Bei Fu Laboratory Animal Technology Co., six- to eight-week-old male CD1 mice (approximately 20–30 g) obtained from Si Bei Fu Laboratory Animal Technology Co., and six- to eight-week-old female BALB/c nude mice (approximately 20–30 g) obtained from Si Bei Fu Laboratory Animal Technology Co., were used in the pharmacokinetic studies. Six- to eight-week-old female BALB/c nude mice (approximately 18–22 g) obtained from Beijing Anikeeper Biotech Co., Ltd. were used in the intracranial PDX study. […]
(§2) Oral CNS pharmacokinetic assessment of 9 was done by oral gavage (formulation: 1% methylcellulose) followed by blood and brain sampling at 7 time points (0.25, 0.5, 1, 2, 4, 8, 24 h post dose) with n = 3 animals per time point (n = 21 total). […] Concentrations of 9 in the plasma and brain samples were determined using LC-MS/MS and WinNonlin 8.3 (Phoenix) was used for pharmacokinetic calculations. […]

ERBB2 = target: T4, ERBB2 (Homo sapiens, UniProt P04626); experiment: KINOMEScan KdELECT Kd determination; format: binding; details: read-out: Kinase Kd
T4 construct: purchased Eurofins DiscoverX (contract assay)
T4 sequence (P04626 23-1255): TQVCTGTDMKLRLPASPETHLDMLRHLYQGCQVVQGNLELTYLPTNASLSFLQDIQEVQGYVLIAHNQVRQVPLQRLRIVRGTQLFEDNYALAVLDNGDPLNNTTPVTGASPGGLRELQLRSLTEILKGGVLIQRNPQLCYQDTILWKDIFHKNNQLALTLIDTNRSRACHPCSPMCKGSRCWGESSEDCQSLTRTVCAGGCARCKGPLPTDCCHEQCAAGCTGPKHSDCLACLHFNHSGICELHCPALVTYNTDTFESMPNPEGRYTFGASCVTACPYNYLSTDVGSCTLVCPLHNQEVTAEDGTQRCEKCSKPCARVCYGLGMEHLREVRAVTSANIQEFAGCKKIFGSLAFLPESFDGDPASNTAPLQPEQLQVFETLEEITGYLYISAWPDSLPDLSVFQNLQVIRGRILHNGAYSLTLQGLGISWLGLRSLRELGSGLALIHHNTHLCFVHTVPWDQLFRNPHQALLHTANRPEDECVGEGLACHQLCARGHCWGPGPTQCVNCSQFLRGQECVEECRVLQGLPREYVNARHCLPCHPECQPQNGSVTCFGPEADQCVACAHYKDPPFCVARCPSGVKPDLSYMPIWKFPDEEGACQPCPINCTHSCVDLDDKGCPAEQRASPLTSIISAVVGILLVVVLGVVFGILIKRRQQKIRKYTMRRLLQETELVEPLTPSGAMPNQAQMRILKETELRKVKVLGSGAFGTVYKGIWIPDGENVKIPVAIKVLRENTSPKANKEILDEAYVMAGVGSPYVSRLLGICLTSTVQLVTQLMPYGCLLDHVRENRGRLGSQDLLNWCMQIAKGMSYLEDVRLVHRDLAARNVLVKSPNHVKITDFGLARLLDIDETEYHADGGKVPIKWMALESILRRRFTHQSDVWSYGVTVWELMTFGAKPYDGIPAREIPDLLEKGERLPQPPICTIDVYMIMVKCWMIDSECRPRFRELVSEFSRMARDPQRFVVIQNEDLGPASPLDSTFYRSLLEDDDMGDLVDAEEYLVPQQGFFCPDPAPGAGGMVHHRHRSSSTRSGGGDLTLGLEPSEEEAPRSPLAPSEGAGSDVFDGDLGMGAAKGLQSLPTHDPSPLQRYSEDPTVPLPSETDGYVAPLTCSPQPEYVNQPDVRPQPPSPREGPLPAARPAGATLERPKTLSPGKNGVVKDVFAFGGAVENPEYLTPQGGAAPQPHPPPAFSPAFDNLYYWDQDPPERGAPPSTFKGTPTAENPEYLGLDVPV
Description: (§3) In vitro kinase activity (inhibitor binding constants (Kd) and biochemical inhibition (IC50’s)) were assessed by Eurofins DiscoverX (Kd determinations) and Eurofins Cerep (biochemical IC50 determinations).

LYN = target: T5, LYN (Homo sapiens, UniProt P07948); experiment: KINOMEScan KdELECT Kd determination; format: binding; details: read-out: Kinase Kd
T5 construct: purchased Eurofins DiscoverX (contract assay)
T5 sequence (P07948 whole entry): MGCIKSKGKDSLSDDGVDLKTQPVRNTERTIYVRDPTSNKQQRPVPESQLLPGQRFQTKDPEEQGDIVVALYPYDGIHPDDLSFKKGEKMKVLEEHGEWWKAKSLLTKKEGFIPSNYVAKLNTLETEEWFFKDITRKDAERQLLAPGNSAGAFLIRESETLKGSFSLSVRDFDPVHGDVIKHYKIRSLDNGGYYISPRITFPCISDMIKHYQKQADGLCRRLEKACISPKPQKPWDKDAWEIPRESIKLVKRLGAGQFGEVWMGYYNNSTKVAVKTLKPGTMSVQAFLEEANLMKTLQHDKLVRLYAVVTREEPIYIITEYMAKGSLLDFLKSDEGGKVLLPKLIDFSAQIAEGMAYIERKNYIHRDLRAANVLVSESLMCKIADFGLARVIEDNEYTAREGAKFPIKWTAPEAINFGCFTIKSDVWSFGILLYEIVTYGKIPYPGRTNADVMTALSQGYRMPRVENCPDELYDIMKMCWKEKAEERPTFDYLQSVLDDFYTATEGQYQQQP
Description: as §3

BCR-ABLwt (Phos.) = target: T6, BCR-ABLwt (Phos.) (Homo sapiens, UniProt P00519); experiment: KINOMEScan KdELECT Kd determination; format: binding; details: read-out: Kinase Kd
T6 construct: purchased Eurofins DiscoverX (contract assay)
Description: as §3

DRAK1 = target: T7, DRAK1 (Homo sapiens, UniProt Q9UEE5); experiment: KINOMEScan KdELECT Kd determination; format: binding; details: read-out: Kinase Kd
T7 construct: purchased Eurofins DiscoverX (contract assay)
T7 sequence (Q9UEE5 1-414): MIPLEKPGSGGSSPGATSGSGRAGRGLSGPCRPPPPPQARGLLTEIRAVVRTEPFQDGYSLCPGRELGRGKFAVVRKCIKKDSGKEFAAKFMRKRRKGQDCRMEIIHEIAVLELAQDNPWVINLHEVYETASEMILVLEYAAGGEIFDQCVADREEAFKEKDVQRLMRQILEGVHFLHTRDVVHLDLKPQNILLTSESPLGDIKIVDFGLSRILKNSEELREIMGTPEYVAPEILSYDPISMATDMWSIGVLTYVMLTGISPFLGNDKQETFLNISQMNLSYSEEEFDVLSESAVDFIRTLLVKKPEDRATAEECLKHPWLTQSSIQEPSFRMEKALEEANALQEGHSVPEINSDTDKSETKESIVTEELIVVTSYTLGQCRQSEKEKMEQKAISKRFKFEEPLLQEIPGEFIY
Description: as §3

BCR-ABLwt (Nonphos.) = target: T8, BCR-ABLwt (Nonphos.) (Homo sapiens, UniProt P00519); experiment: KINOMEScan KdELECT Kd determination; format: binding; details: read-out: Kinase Kd
T8 construct: purchased Eurofins DiscoverX (contract assay)
Description: as §3

[4] = Oral CNS pharmacokinetic assessment; format: in vivo, CD1 mice; details: male, CD1, brain/plasma, Mouse 40 mg/kg (PO)
Description: as §1, §2

[5] = target: T9, ABL1(Y253F)-phosphorylated (Homo sapiens, UniProt P00519, Y253F); experiment: KINOMEScan; format: binding; details: read-out: Percent Control
T9 construct: purchased Eurofins DiscoverX
Description: as §4

AKT2 = target: T10, AKT2 (Homo sapiens, UniProt P31751); experiment: KINOMEScan; format: binding; details: AKT2, 1 µM; read-out: Percent Control
T10 construct: purchased Eurofins DiscoverX (KINOMEscan)
T10 sequence (P31751 whole entry): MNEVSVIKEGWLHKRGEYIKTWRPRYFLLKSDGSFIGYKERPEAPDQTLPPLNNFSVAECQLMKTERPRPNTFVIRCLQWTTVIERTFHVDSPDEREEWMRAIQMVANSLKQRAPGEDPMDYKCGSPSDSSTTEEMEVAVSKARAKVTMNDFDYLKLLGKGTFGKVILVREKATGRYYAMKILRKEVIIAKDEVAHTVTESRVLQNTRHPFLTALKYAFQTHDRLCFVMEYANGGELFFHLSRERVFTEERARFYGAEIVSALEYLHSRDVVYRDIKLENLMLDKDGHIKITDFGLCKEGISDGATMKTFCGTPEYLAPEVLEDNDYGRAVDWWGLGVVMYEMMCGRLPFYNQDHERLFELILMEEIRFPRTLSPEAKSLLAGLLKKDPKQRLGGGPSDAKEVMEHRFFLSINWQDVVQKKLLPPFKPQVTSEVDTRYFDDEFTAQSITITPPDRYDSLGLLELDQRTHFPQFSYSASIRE
Description: as §4

In the case of `COc1cc2ncnc(Nc3cccc(Cl)c3F)c2cc1OCCON1CCN(C)CC1` [Compound 9, N-(3-Chloro-2-fluorophenyl)-7-methoxy-6-(2-((4-methylpiperazin-1-yl)oxy)ethoxy)quinazolin-4-amine], the remaining binding at 1 µM [1] is reported as 6.7%, the remaining binding at 1 µM (YSK1) is reported as 94% and the remaining binding at 1 µM [2] is reported as 30%. The Kp at 24 h ([3]; read-out: Kp brain (AUCinf)) was 0.95, the Kp uu at 24 h ([3]; read-out: Kp,uu brain (AUCinf)) was 0.33 and the Kd (ERBB2) was 21 nM. It also gave a Kd (LYN) of 110 nM, a Kd (BCR-ABLwt (Phos.)) of 180 nM and a Kd (DRAK1) of 87 nM. For the same compound, the Kd (BCR-ABLwt (Nonphos.)) was 260 nM, the Kp at 24 h ([4]; read-out: Kp brain (AUCinf)) was 0.77 and the Kp uu at 24 h ([4]; read-out: Kp,uu brain (AUCinf)) was 0.45. For the same compound, the remaining binding at 1 µM [5] was 6.6% and the remaining binding at 1 µM (AKT2) was 91%.
